Molecular target: human ACC2 (Homo sapiens (Human), UniProt O00763)
Experiment: ACC2 assay (spectrophotometric 384 well assay, NADH-linked kinetic method)
Type: biochemical
Conditions: hACC2 construct lacking 128 N-terminal amino acids; coupled lactate dehydrogenase/pyruvate kinase reaction, 340 nm, 25° C.
Method in brief: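 Baculovirus/insect-cell human ACC2, anion-exchange purified; ADP formation coupled to pyruvate kinase/lactate dehydrogenase, NADH loss followed at 340 nm, 25° C, 15 min. Final 200 μM NADH and acetyl-CoA, 500 uM ATP; vehicle and no-acetyl-CoA wells set 100% and 0%.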

human ACC2, sequence (O00763 129-2458): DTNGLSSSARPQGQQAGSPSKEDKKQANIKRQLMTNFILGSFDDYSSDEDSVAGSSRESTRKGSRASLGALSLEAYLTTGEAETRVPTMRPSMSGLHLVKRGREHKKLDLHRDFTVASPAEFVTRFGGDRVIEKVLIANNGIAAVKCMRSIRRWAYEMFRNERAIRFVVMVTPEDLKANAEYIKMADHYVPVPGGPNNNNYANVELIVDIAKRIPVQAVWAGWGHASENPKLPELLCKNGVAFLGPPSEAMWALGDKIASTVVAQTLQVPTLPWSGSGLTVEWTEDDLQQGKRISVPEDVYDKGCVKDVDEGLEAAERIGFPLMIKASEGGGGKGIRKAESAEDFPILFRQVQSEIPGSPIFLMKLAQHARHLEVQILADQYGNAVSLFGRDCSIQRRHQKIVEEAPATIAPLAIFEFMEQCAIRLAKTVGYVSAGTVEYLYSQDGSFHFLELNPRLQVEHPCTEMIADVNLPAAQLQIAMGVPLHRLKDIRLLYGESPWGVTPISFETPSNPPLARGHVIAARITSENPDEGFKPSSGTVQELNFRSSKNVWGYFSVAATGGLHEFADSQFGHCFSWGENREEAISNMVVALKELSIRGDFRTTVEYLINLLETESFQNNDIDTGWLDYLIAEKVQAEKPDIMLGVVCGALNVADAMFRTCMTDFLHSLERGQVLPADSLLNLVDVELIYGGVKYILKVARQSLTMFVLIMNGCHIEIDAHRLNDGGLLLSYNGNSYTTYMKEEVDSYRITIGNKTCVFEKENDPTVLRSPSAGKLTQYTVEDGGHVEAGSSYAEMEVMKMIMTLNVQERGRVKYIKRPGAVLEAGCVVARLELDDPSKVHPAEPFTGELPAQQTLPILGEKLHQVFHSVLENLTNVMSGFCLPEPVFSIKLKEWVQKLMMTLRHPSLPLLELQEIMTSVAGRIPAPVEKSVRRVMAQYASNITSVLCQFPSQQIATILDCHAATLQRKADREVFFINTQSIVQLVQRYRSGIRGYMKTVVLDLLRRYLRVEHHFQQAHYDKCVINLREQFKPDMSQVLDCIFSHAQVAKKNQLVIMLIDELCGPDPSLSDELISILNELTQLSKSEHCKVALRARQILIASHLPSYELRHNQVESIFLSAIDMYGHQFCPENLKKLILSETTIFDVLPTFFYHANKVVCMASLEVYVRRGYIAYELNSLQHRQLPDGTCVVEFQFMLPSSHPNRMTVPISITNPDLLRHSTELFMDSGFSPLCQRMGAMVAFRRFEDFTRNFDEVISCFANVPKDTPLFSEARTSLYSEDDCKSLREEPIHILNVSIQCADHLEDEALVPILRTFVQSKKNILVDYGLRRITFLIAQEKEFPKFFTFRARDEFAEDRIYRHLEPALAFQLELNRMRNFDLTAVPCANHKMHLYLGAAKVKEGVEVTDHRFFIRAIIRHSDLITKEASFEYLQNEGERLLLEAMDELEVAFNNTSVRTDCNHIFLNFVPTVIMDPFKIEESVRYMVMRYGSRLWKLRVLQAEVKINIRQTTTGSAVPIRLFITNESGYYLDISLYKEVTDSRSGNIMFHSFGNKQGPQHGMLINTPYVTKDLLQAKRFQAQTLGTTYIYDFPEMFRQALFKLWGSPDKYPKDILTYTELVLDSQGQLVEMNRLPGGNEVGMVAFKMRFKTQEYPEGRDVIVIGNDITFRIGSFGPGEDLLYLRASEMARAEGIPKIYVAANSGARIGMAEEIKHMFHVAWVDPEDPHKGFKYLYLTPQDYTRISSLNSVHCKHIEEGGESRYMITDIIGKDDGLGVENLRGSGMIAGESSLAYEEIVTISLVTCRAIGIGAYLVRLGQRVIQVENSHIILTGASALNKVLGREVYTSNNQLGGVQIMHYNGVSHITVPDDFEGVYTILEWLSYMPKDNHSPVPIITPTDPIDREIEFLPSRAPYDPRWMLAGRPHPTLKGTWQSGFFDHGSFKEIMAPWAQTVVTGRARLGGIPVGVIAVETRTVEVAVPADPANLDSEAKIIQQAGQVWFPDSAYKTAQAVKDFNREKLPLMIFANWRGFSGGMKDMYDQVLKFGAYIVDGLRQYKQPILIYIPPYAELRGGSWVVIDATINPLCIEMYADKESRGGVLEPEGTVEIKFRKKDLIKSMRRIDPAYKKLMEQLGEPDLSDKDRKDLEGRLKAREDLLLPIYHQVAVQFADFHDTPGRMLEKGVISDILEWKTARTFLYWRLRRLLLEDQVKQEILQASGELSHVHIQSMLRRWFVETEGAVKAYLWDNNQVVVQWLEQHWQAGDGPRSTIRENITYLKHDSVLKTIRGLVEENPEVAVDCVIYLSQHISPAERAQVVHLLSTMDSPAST

With `CCCNc1ncc(Cl)c(N2CC[C@@H](Oc3ccc([C@H](C)NC(C)=O)cc3)C2)n1` [Example 8.55] the IC50 was 987 nM.

`CCN(C)c1ncc(Cl)c(N2CC[C@@H](Oc3ccc([C@H](C)NC(C)=O)cc3)C2)n1` [Example 8.56] was tested, and the IC50 was 60 nM.

For `CCN(C)c1ncc(Br)c(N2CC[C@@H](Oc3ccc([C@H](C)NC(C)=O)cc3)C2)n1` [Example 8.57], the IC50 was 1000 nM.

Molecule `CC(=O)N[C@@H](C)c1ccc(O[C@@H]2CCN(c3nc(N(C)C)ncc3Br)C2)cc1` [Example 8.58] has an IC50 of 484 nM.

`CC(=O)N[C@@H](C)c1ccc(O[C@@H]2CCN(c3nc(N4CCCC4)ncc3Br)C2)cc1` [Example 8.59] showed an IC50 of 425 nM.

In the case of `CCN(CC)c1ncc(Cl)c(N2CC[C@@H](Oc3ccc([C@H](C)NC(C)=O)cc3)C2)n1` [Example 8.60], the IC50 is reported as 59 nM.

`CC(=O)N[C@@H](C)c1ccc(O[C@@H]2CCN(c3nc(N(C)CC4CCOC4)ncc3Br)C2)cc1` (stereo partly shown) [Example 8.61] was tested, and the IC50 was 245 nM.

Work on `CCCN(C)c1ncc(Br)c(N2CC[C@@H](Oc3ccc([C@H](C)NC(C)=O)cc3)C2)n1` [Example 8.62] yielded an IC50 of 184 nM.

In the case of `CC(=O)N[C@@H](C)c1ccc(O[C@@H]2CCN(c3nc(N(C)C(C)C)ncc3F)C2)cc1` [Example 8.63], the IC50 is reported as 71 nM.

With `CC(=O)N[C@@H](C)c1ccc(O[C@@H]2CCN(c3nc(N(C)CCC#N)ncc3F)C2)cc1` [Example 8.64] the IC50 was 745 nM.

Molecule `[2H]C([2H])([2H])N(c1ncc(F)c(N2CC[C@@H](Oc3ccc([C@H](C)NC(C)=O)cc3)C2)n1)C([2H])([2H])[2H]` [Example 8.65] has an IC50 of 80 nM.

For `COCCN(C)c1ncc(F)c(N2CC[C@@H](Oc3ccc([C@H](C)NC(C)=O)cc3)C2)n1` [Example 8.66], the IC50 was 65 nM.

Work on `CC(=O)N[C@@H](C)c1ccc(O[C@@H]2CCN(c3nc(N4CC(F)(F)C4)ncc3F)C2)cc1` [Example 8.67] yielded an IC50 of 130 nM.

With `CC(=O)N[C@@H](C)c1ccc(O[C@@H]2CCN(c3nc(N(C)C4CC4)ncc3F)C2)cc1` [Example 8.68] the IC50 was 50 nM.

In the case of `CC(=O)N[C@@H](C)c1ccc(O[C@@H]2CCN(c3nc(N4CCC(F)(F)C4)ncc3F)C2)cc1` [Example 8.69], the IC50 is reported as 102 nM.

`CC(=O)N[C@@H](C)c1ccc(O[C@@H]2CCN(c3nc(N4CCC(C)C4)ncc3F)C2)cc1` (stereo partly shown) [Example 8.70] showed an IC50 of 59 nM.

`CC(=O)N[C@@H](C)c1ccc(O[C@@H]2CCN(c3ccnc(N4CCOCC4)n3)C2)cc1` [Example 8.71] was tested, and the IC50 was 199 nM.

Work on `CCN(CCC#N)c1nccc(N2CC[C@@H](Oc3ccc([C@H](C)NC(C)=O)cc3)C2)n1` [Example 8.72] yielded an IC50 of 167 nM.

`CC(=O)N[C@@H](C)c1ccc(O[C@@H]2CCN(c3ccnc(N4CC(C)(C)C4)n3)C2)cc1` [Example 8.73] was tested, and the IC50 was 1040 nM.

`CC(=O)N[C@@H](C)c1ccc(O[C@@H]2CCN(c3ccnc(N4CC(F)(F)C(F)(F)C4)n3)C2)cc1` [Example 8.74] was tested, and the IC50 was 115 nM.

In the case of `CC(=O)N[C@@H](C)c1ccc(O[C@@H]2CCN(c3ccnc(N4CC5(CCC5)C4)n3)C2)cc1` [Example 8.75], the IC50 is reported as 358 nM.

`CC(=O)N[C@@H](C)c1ccc(O[C@@H]2CCN(c3ccnc(N4CCC5(CC5)C4)n3)C2)cc1` [Example 8.76] gave an IC50 of 155 nM.

`CC(=O)N[C@@H](C)c1ccc(O[C@@H]2CCN(c3ccnc(N4CCC(C#N)C4)n3)C2)cc1` (stereo partly shown) [Example 8.77] showed an IC50 of 489 nM.

Work on `CC(=O)N[C@@H](C)c1ccc(O[C@@H]2CCN(c3ccnc(N4CCC(C)(C)C4)n3)C2)cc1` [Example 8.78] yielded an IC50 of 260 nM.

`CCN(CC(F)(F)F)c1nccc(N2CC[C@@H](Oc3ccc([C@H](C)NC(C)=O)cc3)C2)n1` [Example 8.79] showed an IC50 of 37 nM.

`CC(=O)N[C@@H](C)c1ccc(O[C@@H]2CCN(c3nccc(N4CC5(CCC5)C4)n3)C2)cc1` [Example 8.80] gave an IC50 of 955 nM.

Work on `CC(=O)N[C@@H](C)c1ccc(O[C@@H]2CCN(c3nccc(N4CCC(C)(C)C4)n3)C2)cc1` [Example 8.81] yielded an IC50 of 970 nM.

With `COCCN(CC(F)F)c1nccc(N2CC[C@@H](Oc3ccc([C@H](C)NC(C)=O)cc3)C2)n1` [Example 8.83] the IC50 was 165 nM.

In the case of `CC(=O)N[C@@H](C)c1ccc(O[C@@H]2CCN(c3ccnc(N4CCOC(C)C4)n3)C2)cc1` (stereo partly shown) [Example 8.84], the IC50 is reported as 212 nM.

With `CC(=O)N[C@@H](C)c1ccc(O[C@@H]2CCN(c3ccnc(N4C[C@@H](C)O[C@@H](C)C4)n3)C2)cc1` [Example 8.85] the IC50 was 566 nM.

In the case of `CC(=O)N[C@@H](C)c1ccc(O[C@@H]2CCN(c3ccnc(N4CCOCC4(C)C)n3)C2)cc1` [Example 8.86], the IC50 is reported as 670 nM.

`CC(=O)N[C@@H](C)c1ccc(O[C@@H]2CCN(c3ccnc(N4[C@H](C)COC[C@H]4C)n3)C2)cc1` [Example 8.87] gave an IC50 of 128 nM.

Molecule `CC(=O)N[C@@H](C)c1ccc(O[C@@H]2CCN(c3ccnc(N4CCOC(C(F)(F)F)C4)n3)C2)cc1` (stereo partly shown) [Example 8.88] has an IC50 of 130 nM.

`CC(=O)N[C@@H](C)c1ccc(O[C@@H]2CCN(c3ccnc(N4CCOC(C)(C)C4)n3)C2)cc1` [Example 8.89] showed an IC50 of 293 nM.

For `CC(=O)N[C@@H](C)c1ccc(O[C@@H]2CCN(c3ccnc(N4[C@H](C)COC[C@@H]4C)n3)C2)cc1` [Example 8.90], the IC50 was 364 nM.

For `CC(=O)N[C@@H](C)c1ccc(O[C@@H]2CCN(c3ccnc(N4CCSCC4)n3)C2)cc1` [Example 8.91], the IC50 was 105 nM.

Molecule `CC(=O)N[C@@H](C)c1ccc(O[C@@H]2CCN(c3ncnc(N(C)CC4CC4)c3F)C2)cc1` [Example 8.92] has an IC50 of 100 nM.

Molecule `CC(=O)N[C@@H](C)c1ccc(O[C@@H]2CCN(c3ncnc(N(C)C)c3F)C2)cc1` [Example 8.93] has an IC50 of 440 nM.

Molecule `CCN(C)c1ncnc(N2CC[C@@H](Oc3ccc([C@H](C)NC(C)=O)cc3)C2)c1F` [Example 8.94] has an IC50 of 165 nM.

For `CCN(CC)c1ncnc(N2CC[C@@H](Oc3ccc([C@H](C)NC(C)=O)cc3)C2)c1F` [Example 8.95], the IC50 was 79 nM.

Work on `CC(=O)N[C@@H](C)c1ccc(O[C@@H]2CCN(c3nc(N4CCOCC4)ncc3Cl)C2)cc1` [Example 8.96] yielded an IC50 of 265 nM.

Molecule `C[C@H](NC(=O)c1cncs1)c1ccc(O[C@@H]2CCN(c3ccnc(N(C)CC(F)F)n3)C2)cc1` [Example 8.97] has an IC50 of 79 nM.

`C[C@H](NC(=O)c1cncs1)c1ccc(O[C@@H]2CCN(c3ccnc(N(C)CCC#N)n3)C2)cc1` [Example 8.98] showed an IC50 of 212 nM.

`C[C@H](NC(=O)c1cncs1)c1ccc(O[C@@H]2CCN(c3nc(N(C)C)ncc3F)C2)cc1` [Example 8.99] gave an IC50 of 120 nM.

In the case of `CCN(CC)c1ncnc(N2CC[C@@H](Oc3ccc([C@H](C)NC(C)=O)cc3)C2)c1C` [Example 8.100], the IC50 is reported as 180 nM.

Work on `CCN(C)c1ncnc(N2CC[C@@H](Oc3ccc([C@H](C)NC(C)=O)cc3)C2)c1C` [Example 8.101] yielded an IC50 of 376 nM.

`CCN(C)c1ncnc(N2CC[C@@H](Oc3ccc([C@H](C)NC(C)=O)cc3)C2)c1Cl` [Example 8.102] was tested, and the IC50 was 88 nM.

`CC(=O)N[C@@H](C)c1ccc(O[C@@H]2CCN(c3ncnc(N4CCCC4)c3Cl)C2)cc1` [Example 8.103] gave an IC50 of 120 nM.

In the case of `CCN(CC)c1ncnc(N2CC[C@@H](Oc3ccc([C@H](C)NC(C)=O)cc3)C2)c1Cl` [Example 8.104], the IC50 is reported as 59 nM.

In the case of `CCN(CCOC)c1nccc(N2CC[C@@H](Oc3ccc([C@H](C)NC(C)=O)cc3)C2)n1` [Example 8.106], the IC50 is reported as 160 nM.

Work on `CC(=O)N[C@@H](C)c1ccc(O[C@@H]2CCN(c3ccnc(N(CCC#N)C4CC4)n3)C2)cc1` [Example 8.107] yielded an IC50 of 522 nM.

`CC(=O)N[C@@H](C)c1ccc(O[C@@H]2CCN(c3ccnc(N(CCC#N)C4CCCC4)n3)C2)cc1` [Example 8.108] was tested, and the IC50 was 375 nM.

With `CCCN(CCC#N)c1nccc(N2CC[C@@H](Oc3ccc([C@H](C)NC(C)=O)cc3)C2)n1` [Example 8.109] the IC50 was 245 nM.

`CC(=O)N[C@@H](C)c1ccc(O[C@@H]2CCN(c3ccnc(N(CCC#N)CC4CCCO4)n3)C2)cc1` (stereo partly shown) [Example 8.110] gave an IC50 of 234 nM.

With `CC(=O)N[C@@H](C)c1ccc(O[C@@H]2CCN(c3ncnc(N4CC(F)(F)C4)c3Cl)C2)cc1` [Example 8.111] the IC50 was 116 nM.

`CC(=O)N[C@@H](C)c1ccc(O[C@@H]2CCN(c3ncnc(N4CCCCC4)c3Cl)C2)cc1` [Example 8.112] was tested, and the IC50 was 53 nM.

In the case of `CC(=O)N[C@@H](C)c1ccc(O[C@@H]2CCN(c3ncnc(N4CCC5(CC5)C4)c3Cl)C2)cc1` [Example 8.113], the IC50 is reported as 40 nM.

With `CC(=O)N[C@@H](C)c1ccc(O[C@@H]2CCN(c3ncnc(N4CCC(F)(F)C4)c3Cl)C2)cc1` [Example 8.114] the IC50 was 80 nM.

Molecule `CC(=O)N[C@@H](C)c1ccc(O[C@@H]2CCN(c3ncnc(N(C)CC(F)F)c3Cl)C2)cc1` [Example 8.115] has an IC50 of 166 nM.

Molecule `CCN(CCC#N)c1ncnc(N2CC[C@@H](Oc3ccc([C@H](C)NC(C)=O)cc3)C2)c1Cl` [Example 8.116] has an IC50 of 470 nM.

`CC(=O)N[C@@H](C)c1ccc(O[C@@H]2CCN(c3ncnc(N4CCOCC4)c3Cl)C2)cc1` [Example 8.117] was tested, and the IC50 was 485 nM.

For `CCNc1ncnc(N2CC[C@@H](Oc3ccc([C@H](C)NC(C)=O)cc3)C2)c1F` [Example 8.118], the IC50 was 2460 nM.

Work on `CC(=O)N[C@@H](C)c1ccc(O[C@@H]2CCN(c3ncnc(NC4CCCC4)c3F)C2)cc1` [Example 8.119] yielded an IC50 of 209 nM.

For `CCCNc1ncnc(N2CC[C@@H](Oc3ccc([C@H](C)NC(C)=O)cc3)C2)c1F` [Example 8.120], the IC50 was 413 nM.

Molecule `CC(=O)N[C@@H](C)c1ccc(O[C@@H]2CCN(c3ncnc(NCC4CC4)c3F)C2)cc1` [Example 8.121] has an IC50 of 169 nM.

For `CC(=O)N[C@@H](C)c1ccc(O[C@@H]2CCN(c3ncnc(N(C)CC4CCOC4)c3F)C2)cc1` (stereo partly shown) [Example 8.122], the IC50 was 547 nM.

For `CC(=O)N[C@@H](C)c1ccc(O[C@@H]2CCN(c3nc(N(C)C4CCCC4)ncc3Cl)C2)cc1` [Example 8.124], the IC50 was 111 nM.

`CC(=O)N[C@@H](C)c1ccc(O[C@@H]2CCN(c3ncnc(N(C)C4CCCC4)c3F)C2)cc1` [Example 8.125] showed an IC50 of 90 nM.

With `CC(=O)N[C@@H](C)c1ccc(O[C@@H]2CCN(c3nc(N(C)CC4CC4)ncc3Cl)C2)cc1` [Example 8.126] the IC50 was 58 nM.

For `CC(=O)N[C@@H](C)c1ccc(O[C@@H]2CCN(c3nc(N4CCCCC4)ncc3Cl)C2)cc1` [Example 8.127], the IC50 was 107 nM.

From patent publication US8962641B2, “Pyrimidine-substituted pyrrolidine derivatives, pharmaceutical compositions and uses thereof” (Boehringer Ingelheim International GmbH, priority 2013, dated 2015)
